Experiment [1] concerns MCF7, hormone-independent human breast cancer cells. Nature of the experiment: Proliferation assay, MCF7. It counts as cell-based. Conditions: MCF7, 96 h, 4 days incubation, crystal violet. The text has this:
(§1) Cultivated human tumor cells (MCF7, hormone-independent human breast cancer cells, related to ATCC HTB22; NCI-H460, human non-small-cell lung cancer cells, ATCC HTB-177, HCT 116, human colon cancer cells, ATCC CCL-247; DU 145, hormone-independent human prostate cancer cells, ATCC HTB-81; MaTu-MDR, hormone-independent, multiple pharmaceutical agent-resistant human breast cancer cells, EPO-GmbH, Berlin) were flattened out at a density of about 5000 cells/measuring point, depending on the growth rate of the respective cells, in a 96-well multititer plate in 200 μl of the corresponding growth medium. After 24 hours, the cells of one plate (zero-point plate) were colored with crystal violet (see below), while the medium of the other plates was replaced by fresh culture medium (200 μl), to which the test substances were added in various concentrations (0 μm, as well as in the range of 0.01-30 μm; the final concentration of the solvent dimethyl sulfoxide was 0.5%). The cells were incubated for 4 days in the presence of test substances. The cell proliferation was determined by coloring the cells with crystal violet: the cells were fixed by adding 20 μl/measuring point of an 11% glutaric aldehyde solution for 15 minutes at room temperature. After three washing cycles of the fixed cells with water, the plates were dried at room temperature. The cells were colored by adding 100 μl/measuring point of a 0.1% crystal violet solution (the pH was set at 3 by adding acetic acid). After three washing cycles of the colored cells with water, the plates were dried at room temperature. The dye was dissolved by adding 100 μl/measuring point of a 10% acetic acid solution. The extinction was determined by photometry at a wavelength of 595 nm. The change of cell growth, in percent, was calculated by normalization of the measured values to the extinction values of the zero-point plate (=0%) and the extinction of the untreated (0 μm) cells (=100%).

The target in another experiment is T1, CDK1/CycB (Homo sapiens, UniProt P06493).
T1 construct: GST; purchased ProQinase GmbH, Freiburg; host or cells: baculovirus-infected insect cells (Sf9)
T1 sequence (P06493 whole entry): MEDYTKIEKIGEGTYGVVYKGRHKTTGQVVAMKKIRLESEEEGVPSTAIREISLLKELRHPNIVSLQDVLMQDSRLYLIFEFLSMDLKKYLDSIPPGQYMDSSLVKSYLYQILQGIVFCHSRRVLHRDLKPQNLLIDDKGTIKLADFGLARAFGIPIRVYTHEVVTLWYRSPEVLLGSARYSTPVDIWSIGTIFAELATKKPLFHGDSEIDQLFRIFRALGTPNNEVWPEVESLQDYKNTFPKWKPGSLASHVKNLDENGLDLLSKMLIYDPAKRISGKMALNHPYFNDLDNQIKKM
T1 sequence (P14635 whole entry partner): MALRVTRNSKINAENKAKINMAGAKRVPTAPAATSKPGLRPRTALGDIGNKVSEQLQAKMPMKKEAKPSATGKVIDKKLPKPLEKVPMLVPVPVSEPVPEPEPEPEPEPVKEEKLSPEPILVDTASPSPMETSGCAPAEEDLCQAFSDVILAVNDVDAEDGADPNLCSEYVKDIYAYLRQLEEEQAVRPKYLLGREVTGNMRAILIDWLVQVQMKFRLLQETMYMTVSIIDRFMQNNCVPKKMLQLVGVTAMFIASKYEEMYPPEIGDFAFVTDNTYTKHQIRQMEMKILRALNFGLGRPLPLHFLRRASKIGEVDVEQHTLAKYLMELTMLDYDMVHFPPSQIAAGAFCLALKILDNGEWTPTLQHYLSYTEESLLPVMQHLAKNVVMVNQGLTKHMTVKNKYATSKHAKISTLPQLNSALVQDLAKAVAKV
The experiment is described as follows: CDK1/CycB Kinase Assay. Format: biochemical. As to conditions: histone IIIS substrate, 33P-ATP, 15 minutes at 22° C. The procedure: Recombinant CDK1- and CycB-GST-fusion proteins, purified from baculovirus-infected insect cells (Sf9), were purchased from ProQinase GmbH, Freiburg. Histone IIIS, used as a kinase substrate, is available commercially from the Sigma Company.
The reaction was stopped by adding EDTA solution (250 mmol, pH 8.0, 14 μl/measuring point).
(§2) From each reaction batch, 10 μl was applied to P30 filter strips (Wallac Company), and non-incorporated 33P-ATP was removed by subjecting the filter strips to three washing cycles for 10 minutes each in 0.5% phosphoric acid. After the filter strips were dried for one hour at 70° C., the filter strips were covered with scintillator strips (MeltiLex™ A, Wallac Company) and baked for one hour at 90° C. The amount of incorporated 33P (substrate phosphorylation) was determined by scintillation measurement in a gamma-radiation measuring device (Wallac).

For another experiment, the target named is T2, CDK2/CycE (Homo sapiens, UniProt P24941).
T2 construct: GST; purchased ProQinase GmbH, Freiburg; host or cells: baculovirus-infected insect cells (Sf9)
Nature of the experiment: CDK2/CycE Kinase Assay. It counts as biochemical. Conditions: histone IIIS substrate, 33P-ATP, 15 minutes at 22° C. The method, then: Recombinant CDK2- and CycE-GST-fusion proteins, purified from baculovirus-infected insect cells (Sf9), were purchased by ProQinase GmbH, Freiburg. Histone IIIs, which was used as a kinase substrate, was purchased by the Sigma Company.
CDK2/CycE (50 ng/measuring point) was incubated for 15 minutes at 22° C. in the presence of various concentrations of test substances (0 μm, as well as within the range of 0.01-100 μm) in assay buffer [50 mmol of tris/HCl, pH 8.0, 10 mmol of MgCl2, 0.1 mmol of Na ortho-vanadate, 1.0 mmol of dithiothreitol, 0.5 μm of adenosine triphosphate (ATP), 10 μg/measuring point of histone IIIS, 0.2 μCi/measuring point of ^33P-gamma ATP, 0.05% NP40, 12.5% dimethyl sulfoxide]. The reaction was stopped by adding EDTA solution (250 mmol, pH 8.0, 14 μl/measuring point).
From each reaction batch, 10 μl was applied to P30 filter strips (Wallac Company), and non-incorporated ^33P-ATP was removed by subjecting the filter strips to three washing cycles for 10 minutes each in 0.5% phosphoric acid. After the filter strips were dried for one hour at 70° C., the filter strips were covered with scintillator strips (MeltiLex™ A, Wallac Company) and baked for one hour at 90° C. The amount of incorporated ^33P (substrate phosphorylation) was determined by scintillation measurement in a gamma-radiation measuring device (Wallac).

Experiment [2] deals with T3, VEGF receptor tyrosine kinase-2 (Homo sapiens, UniProt P35968).
T3 construct: GST; made in house; host or cells: baculovirus-infected insect cells (Sf9)
T3 sequence (P35968 20-1356): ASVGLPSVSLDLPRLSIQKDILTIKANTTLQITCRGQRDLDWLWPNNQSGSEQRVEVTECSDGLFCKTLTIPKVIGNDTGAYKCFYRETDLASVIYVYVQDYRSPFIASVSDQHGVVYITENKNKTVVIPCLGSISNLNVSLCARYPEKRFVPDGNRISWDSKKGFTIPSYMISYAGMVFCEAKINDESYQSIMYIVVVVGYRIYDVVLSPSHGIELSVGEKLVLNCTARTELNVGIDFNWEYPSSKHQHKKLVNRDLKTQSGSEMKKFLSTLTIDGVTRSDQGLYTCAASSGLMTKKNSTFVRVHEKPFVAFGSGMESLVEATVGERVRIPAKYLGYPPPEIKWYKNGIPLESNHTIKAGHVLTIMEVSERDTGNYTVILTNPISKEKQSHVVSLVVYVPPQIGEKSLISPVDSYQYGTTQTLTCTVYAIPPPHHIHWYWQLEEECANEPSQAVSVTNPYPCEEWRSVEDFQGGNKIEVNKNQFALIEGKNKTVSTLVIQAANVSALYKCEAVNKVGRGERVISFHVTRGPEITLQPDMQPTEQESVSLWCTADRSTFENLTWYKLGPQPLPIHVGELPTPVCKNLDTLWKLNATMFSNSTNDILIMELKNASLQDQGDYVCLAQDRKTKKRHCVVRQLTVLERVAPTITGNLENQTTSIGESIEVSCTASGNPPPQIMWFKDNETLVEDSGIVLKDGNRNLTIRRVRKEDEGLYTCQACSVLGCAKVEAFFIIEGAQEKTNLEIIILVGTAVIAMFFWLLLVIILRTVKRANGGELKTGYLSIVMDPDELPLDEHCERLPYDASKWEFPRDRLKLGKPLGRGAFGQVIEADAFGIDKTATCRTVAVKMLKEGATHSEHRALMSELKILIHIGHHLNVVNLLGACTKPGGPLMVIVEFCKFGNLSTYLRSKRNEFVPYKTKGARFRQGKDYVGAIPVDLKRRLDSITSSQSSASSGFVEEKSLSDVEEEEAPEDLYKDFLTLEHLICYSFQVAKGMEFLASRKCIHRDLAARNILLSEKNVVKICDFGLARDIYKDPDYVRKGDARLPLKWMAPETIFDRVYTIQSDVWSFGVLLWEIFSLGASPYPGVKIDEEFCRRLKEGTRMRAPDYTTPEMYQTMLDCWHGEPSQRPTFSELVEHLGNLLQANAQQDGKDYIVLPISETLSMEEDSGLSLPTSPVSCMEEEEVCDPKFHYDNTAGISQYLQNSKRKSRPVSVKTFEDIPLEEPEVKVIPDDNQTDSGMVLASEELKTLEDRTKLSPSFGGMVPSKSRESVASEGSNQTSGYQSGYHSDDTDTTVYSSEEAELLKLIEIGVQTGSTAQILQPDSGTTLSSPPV
Nature of the experiment: VEGF Receptor-2 Kinase Assay. Format: biochemical. Conditions: poly-(Glu4Tyr) substrate, 33P-ATP, 10 minutes at 22° C.; read-out: VEGF-R2 IC50. The method, then:
VEGF Receptor-2 Kinase Assay
Recombinant VEGF receptor tyrosine kinase-2 was purified as a GST fusion protein from baculovirus-infected insect cells (Sf9). Poly-(Glu4Tyr), which was used as a kinase substrate, was purchased by the Sigma Company.
VEGF receptor tyrosine kinase (90 ng/measuring point) was incubated for 10 minutes at 22° C. in the presence of various concentrations of test substances (0 μm, as well as within the range of 0.001-30 μm) in 30 μl of assay buffer [40 mmol of Tris/HCl, […], 10 mmol of MgCl2, 1 mmol of MnCl2, 3 μmol of Na ortho-vanadate, 1.0 mmol of dithiothreitol, 8 μmol of adenosine trisphosphate (ATP), 27 μg/measuring point of poly-(Glu4Tyr), 0.2 μCi/measuring point of 33P-gamma ATP, 1% dimethyl sulfoxide]. The reaction was stopped by adding EDTA solution (250 mmol, pH 7.0, 10 μl/measuring point).
as §2

Experiment [3] has as its system DU 145, hormone-independent human prostate cancer cells. The experiment is described as follows: Proliferation assay, DU145. It counts as cell-based. As to conditions: DU-145, 96 h, 4 days incubation, crystal violet.
Description: as §1

Experimental findings from patent publication US7338958B2, “Sulfoximine-substituted pyrimidines as CDK-and/or VEGF inhibitors, their production and use as pharmaceutical agents” (Schering AG, priority 2003, dated 2008) are described below.

Broadly, the IC50 is the concentration at which inhibition is half-maximal.

Consider `C[C@@H](O)[C@@H](C)Oc1nc(Nc2ccc(S(=N)(=O)CCO)cc2)ncc1Br` (mixture of isomers) [Example 1.21, (RS)-S-[4-({5-bromo-4-[(1R,2R)-2-hydroxy-1-methyl-propoxy]pyrimidin-2-yl}amino)phenyl]-S-(2-hydroxyethyl)sulfoximide], for which the figures for the IC50 (in experiment [1]; against CDK1/CycB) were less than 0.1 µM and 0.005 µM, respectively.

For `CN=S(C)(=O)c1ccc(Nc2ncc(Br)c(N[C@H](C)[C@@H](C)O)n2)cc1` (mixture of isomers) [Example 1.29, (RS)-S-[4-({5-bromo-4-[(1R,2R)-(2-hydroxy-1-methylpropyl)amino]pyrimidin-2-yl}amino)phenyl]-N,S-dimethyl-sulfoximide], the concentration for half-maximal inhibition (IC50) against CDK1/CycB was 0.007 µM; on CDK2/CycE it was 0.004 µM.

Regarding `CN=S(C)(=O)c1ccc(Nc2ncc(Br)c(N[C@H](C)[C@@H](C)O)n2)cc1` (mixture of isomers) [Example 1.30, (RS)-S-[4-({5-bromo-4-[(1R,2R)-(2-hydroxy-1-methylpropyl)amino]pyrimidin-2-yl}amino)phenyl]-N,S-dimethyl-sulfoximide], the half-maximal inhibitory concentration (IC50) on CDK1/CycB stood at 0.015 µM; against CDK2/CycE, 0.006 µM.

Turning to `CCOC(=O)N=S(=O)(CC)c1ccc(Nc2ncc(Br)c(N[C@H](COC)[C@@H](C)O)n2)cc1` (mixture of isomers) [Example 1.33, (RS)-S-{4-[(5-bromo-4-{[(1R,2R)-2-hydroxy-1-(methoxymethyl)propyl]amino}pyrimidin-2-yl)amino]phenyl}-N-(ethoxycarbonyl)-S-ethyl sulfoximide], the IC50 in experiment [1] was 1 µM; at CDK1/CycB it was 0.2 µM; in experiment [2] it was 0.45 µM.

`C[C@@H](O)[C@@H](C)Nc1nc(Nc2ccc(S(C)(=N)=O)cc2)ncc1Br` (mixture of isomers) [Example 1.43, (RS)-S-[4-({5-bromo-4-[(1R,2R)-(2-hydroxy-1-methylpropyl)amino]pyrimidin-2-yl}amino)phenyl]-S-methyl sulfoximide] displayed an IC50 in experiment [1] of less than 0.1 µM.

Consider `COC[C@@H](Nc1nc(Nc2ccc(S(C)(=N)=O)cc2)ncc1Br)[C@@H](C)O` (mixture of isomers) [Example 1.46, (RS)-S-{4-[(5-bromo-4-{[(1R,2R)-2-hydroxy-1-(methoxymethyl)-propyl]amino}pyrimidin-2-yl)amino]phenyl}-S-methyl sulfoximide], for which the IC50 against CDK1/CycB amounted to 0.011 µM; against CDK2/CycE it was 0.004 µM.

Take `COC[C@@H](Nc1nc(Nc2ccc(S(C)(=N)=O)cc2)ncc1Br)[C@@H](C)O` (mixture of isomers) [Example 1.47, (RS)-S-{4-[(5-bromo-4-{[(1R,2R)-2-hydroxy-1-(methoxymethyl)-propyl]amino}pyrimidin-2-yl)amino]phenyl}-S-methyl sulfoximide]: the IC50 against CDK1/CycB was 0.027 µM.

In the case of `CCS(=N)(=O)c1ccc(Nc2ncc(Br)c(N[C@H](COC)[C@@H](C)O)n2)cc1` (mixture of isomers) [Example 1.49, (RS)-S-{4-[(5-bromo-4-{[(1R,2R)-2-hydroxy-1-(methoxymethyl)-propyl]amino}pyrimidin-2-yl)amino]phenyl}-S-ethyl sulfoximide], the concentration for half-maximal inhibition (IC50) in experiment [2] was found to be 0.47 µM.

Regarding `CCS(=N)(=O)c1ccc(Nc2ncc(Br)c(N[C@H](COC)[C@@H](C)O)n2)cc1` (mixture of isomers) [Example 1.50, (RS)-S-{4-[(5-bromo-4-{[(1R,2R)-2-hydroxy-1-(methoxymethyl)-propyl]amino}pyrimidin-2-yl)amino]phenyl}-S-ethyl sulfoximide], in experiment [2], the IC50 is 0.23 µM.

Compound `CCS(=N)(=O)c1ccc(Nc2ncc(Br)c(N[C@H](C)[C@@H](C)O)n2)cc1` (mixture of isomers) [Example 1.53, (RS)-S-[4-({5-bromo-4-[(1R,2R)-(2-hydroxy-1-methylpropyl)amino]pyrimidin-2-yl}amino)phenyl]-S-ethyl sulfoximide] came in with an IC50 against CDK1/CycB of 0.011 µM.

With `Cc1cc(Nc2ncc(Br)c(N[C@H](C)C(C)(C)O)n2)ccc1S(C)(=N)=O` (mixture of isomers) [Example 1.57, (RS)-S-[4-({5-bromo-4-[(R)-(2-hydroxy-1,2-dimethylpropyl)amino]pyrimidin-2-yl}amino)-2-methylphenyl]-S-methyl sulfoximide], the IC50 was less than 0.1 µM in experiment [1] and 0.066 µM in experiment [2].

In the case of `Cc1cc(Nc2ncc(Br)c(N[C@H](C)C(C)(C)O)n2)ccc1S(C)(=N)=O` (mixture of isomers) [Example 1.58, (RS)-S-[4-({5-bromo-4-[(R)-(2-hydroxy-1,2-dimethylpropyl)amino]pyrimidin-2-yl}amino)-2-methylphenyl]-S-methyl sulfoximide], the concentration for half-maximal inhibition (IC50) in experiment [2] turned out to be 0.045 µM.

For `Cc1cc(Nc2ncc(Br)c(N[C@H](C)C(C)(C)O)n2)ccc1S(C)(=N)=O` (mixture of isomers) [Example 1.59, (RS)-S-[4-({5-bromo-4-[(R)-(2-hydroxy-1,2-dimethylpropyl)amino]pyrimidin-2-yl}amino)-2-methylphenyl]-S-methyl sulfoximide], the 50% inhibitory concentration (IC50) in experiment [2] amounted to 0.048 µM.

Turning to `CC(O)CSc1nc(Nc2ccc(S(C)(=N)=O)cc2)ncc1Br` (racemic) [Example 3.4, (RS)-S-[4-({5-bromo-4-[(RS)-(2-hydroxy-propyl)sulfanyl]pyrimidin-2-yl}amino)phenyl]-S-methyl sulfoximide], the IC50 in experiment [1] is 1 µM; at CDK1/CycB it was 0.072 µM.

For `CC(C)(O)CSc1nc(Nc2ccc(S(C)(=N)=O)cc2)ncc1Br` (racemic) [Example 3.9, (RS)-S-[4-({5-bromo-4-[(2-hydroxy-2-methyl-propyl)sulfanyl]pyrimidin-2-yl}amino)phenyl]-S-methyl sulfoximide], the half-inhibitory concentration (IC50) in experiment [1] is 1 µM; on CDK1/CycB, 0.055 µM; on CDK2/CycE it was 0.008 µM.

Consider `COc1cc(Nc2ncc(Br)c(N[C@H](C)[C@@H](C)O)n2)ccc1S(C)(=N)=O` (single isomer, unassigned) [Example 1.25], for which, in experiment [1], the half-inhibitory concentration (IC50) is less than 0.1 µM.

`COc1cc(Nc2ncc(Br)c(N[C@H](C)[C@@H](C)O)n2)ccc1S(C)(=N)=O` (single isomer, unassigned) [Example 1.26] registered a 50% inhibitory concentration (IC50) in experiment [3] of 0.07 µM.
